Reference: patent publication US4521538A (Medosan Industrie Biochimiche Riunite S.p.A., priority 1982, dated 1985)
Where a name gives a salt, the structure may show the parent alone. Read-outs that look alike come from different tables or passages of the source.

Tests used:
[1] = Antiinflammatory activity, carrageenin-induced oedema test; format: in vivo, rats
Description: This effect was evaluated by means of an experimental model reproducing acute inflammation in rats: for this purpose the carrageenin-induced oedema test was employed following the method described by C. A. Winter (J. Pharmac. Exp. […] Wong, J. F. Gardocki and T. P. Pruss, J. Pharmac. Exp. Ther. 185 (1): 127, 1973). Table I lists the tested compounds, the concentration thereof, routes of administration and relative percentage oedema inhibitions; the data are commented upon at the end of the Tables.

[2] = Mucolytic activity in vitro, consistency of human expectoration; settings: 12 experiments
Description: The experiment was carried out "in vitro" according to the method of R. S. Hirsch (Bull. […] Table IV lists the percentage decrease of the expectoration consistency provoked by the compound of this invention in comparison with dithiothreitol and acetylcysteine which are known mucolytic agents.

[3] = Analgesic activity, phenylquinone-induced writhing test; format: in vivo
Description: The inhibiting effect on the abdominal contractions induced by phenyl-p-quinone was calculated by the following formula: [formula]
Table II lists the doses, routes of administration and their efficacy expressed as percentage of protection.

[4] = Antitussive activity (method of Y. Kase); format: in vivo, albino male Guinea-pigs
Description: The antitussive effect on albino male Guinea-pigs weighing 300 g was evaluated using the method described by Y. Kase (Selected Pharmacological Testing Methods, p. 363, Marcel Dekker Inc., New York, 1968).

[5] = format: in vivo, male Wistar rats; settings: for mean severity: scale 0 (no lesion) to 5 (perforations)
Description: Male Wistar rats weighing 180 g were randomized into groups of 10. Three doses of each compound were administered. One group received the vehicle alone (10 ml/kg b.w.). Each dose was given orally for four days consecutively and the rats were sacrificed on the fifth day for necropsy. The ulcerogenic effect was evaluated by the following scale:
(1) each haemorrhagic point at least 1 mm in diameter was scored as 1 lesion,
(2) haemorrhagic points less than 1 mm in diameter were scored in the following manner:
(c) 20 to 29=three lesions
(2) gastric mucosal irritation without haemorrhage: 1
(3) haemorrhagic points less than 1 mm in diameter: 2
(4) haemorrhagic points between 1 and 3 mm in diameter: 3
(5) haemorrhagic points larger than 3 mm in diameter: 4
By means of this scale it was possible to obtain the gastric damage index: [formula]

Compound `COc1ccc2c(c1)c(CC(=O)O)c(C)n2C(=O)c1ccc(Cl)cc1` [Indomethacin] has an Oedema % inhibition ([1]; 2.5 mg/kg i.p., 2 h) of 21.0%, an Oedema % inhibition ([1]; 2.5 mg/kg i.p., 4 h) of 20.0% and an Oedema % inhibition ([1]; 2.5 mg/kg i.p., 6 h) of 17.0%. For the same compound, the Oedema % inhibition ([1]; 2.5 mg/kg i.p., 24 h) was 2.5%, the Oedema % inhibition ([1]; 2.5 mg/kg per os, 2 h) was 18.6% and the Oedema % inhibition ([1]; 2.5 mg/kg per os, 4 h) was 20.7%. The Oedema % inhibition ([1]; 2.5 mg/kg per os, 6 h) was 19.2%, the Oedema % inhibition ([1]; 2.5 mg/kg per os, 24 h) was 2.6% and the Oedema % inhibition ([1]; 5 mg/kg i.p., 2 h) was 30.0%. For the same compound, the Oedema % inhibition ([1]; 5 mg/kg i.p., 4 h) was 29.0%, the Oedema % inhibition ([1]; 5 mg/kg i.p., 6 h) was 23.0% and the Oedema % inhibition ([1]; 5 mg/kg i.p., 24 h) was 3.4%. For the same compound, the Oedema % inhibition ([1]; 5 mg/kg per os, 2 h) was 26.3%, the Oedema % inhibition ([1]; 5 mg/kg per os, 4 h) was 29.1% and the Oedema % inhibition ([1]; 5 mg/kg per os, 6 h) was 28.5%. It also gave an Oedema % inhibition ([1]; 5 mg/kg per os, 24 h) of 2.7%, an Oedema % inhibition ([1]; 10 mg/kg i.p., 2 h) of 49.7% and an Oedema % inhibition ([1]; 10 mg/kg i.p., 4 h) of 46.0%. The Oedema % inhibition ([1]; 10 mg/kg i.p., 6 h) was 48.1%, the Oedema % inhibition ([1]; 10 mg/kg i.p., 24 h) was 8.0% and the Oedema % inhibition ([1]; 10 mg/kg per os, 2 h) was 48.2%. The Oedema % inhibition ([1]; 10 mg/kg per os, 4 h) was 49.0%, the Oedema % inhibition ([1]; 10 mg/kg per os, 6 h) was 46.0% and the Oedema % inhibition ([1]; 10 mg/kg per os, 24 h) was 7.9%.

In the case of `CC(=O)N[C@@H](CS)C(=O)O` [acetylcysteine], the “% decrease of expectoration consistency” value ([2]; […] (20.0%)) is reported as 81%.

Work on `Cc1ccc(C(=O)c2ccc(CC(=O)O)n2C)cc1` [Tolmetin Na.2H2 O, 1-mehtyl-5-p-toluoyl-2-acetic acid sodium salt dihydrate] yielded an Oedema % inhibition ([1]; 25 mg/kg i.p., 2 h) of 28.0%, an Oedema % inhibition ([1]; 25 mg/kg i.p., 4 h) of 29.1% and an Oedema % inhibition ([1]; 25 mg/kg i.p., 6 h) of 32.1%. It also gave an Oedema % inhibition ([1]; 25 mg/kg i.p., 24 h) of 8.9%, an Oedema % inhibition ([1]; 25 mg/kg per os, 2 h) of 24.6% and an Oedema % inhibition ([1]; 25 mg/kg per os, 4 h) of 26.2%. For the same compound, the Oedema % inhibition ([1]; 25 mg/kg per os, 6 h) was 30.1%, the Oedema % inhibition ([1]; 25 mg/kg per os, 24 h) was 6.2% and the Oedema % inhibition ([1]; 50 mg/kg i.p., 2 h) was 47.0%. For the same compound, the Oedema % inhibition ([1]; 50 mg/kg i.p., 4 h) was 49.1%, the Oedema % inhibition ([1]; 50 mg/kg i.p., 6 h) was 40.0% and the Oedema % inhibition ([1]; 50 mg/kg i.p., 24 h) was 7.1%. It also gave an Oedema % inhibition ([1]; 50 mg/kg per os, 2 h) of 43.1%, an Oedema % inhibition ([1]; 50 mg/kg per os, 4 h) of 46.0% and an Oedema % inhibition ([1]; 50 mg/kg per os, 6 h) of 41.3%. For the same compound, the Oedema % inhibition ([1]; 50 mg/kg per os, 24 h) was 9.1%, the Oedema % inhibition ([1]; 100 mg/kg i.p., 2 h) was 64.1% and the Oedema % inhibition ([1]; 100 mg/kg i.p., 4 h) was 65.8%. It also gave an Oedema % inhibition ([1]; 100 mg/kg i.p., 6 h) of 60.2%, an Oedema % inhibition ([1]; 100 mg/kg i.p., 24 h) of 11.2% and an Oedema % inhibition ([1]; 100 mg/kg per os, 2 h) of 60.8%. For the same compound, the Oedema % inhibition ([1]; 100 mg/kg per os, 4 h) was 60.0%, the Oedema % inhibition ([1]; 100 mg/kg per os, 6 h) was 64.5% and the Oedema % inhibition ([1]; 100 mg/kg per os, 24 h) was 14.6%. For the same compound, the “% protection” value ([3]; 5 mg/kg i.p.) was 16.5%, the “% protection” value ([3]; 5 mg/kg per os) was 15.0% and the “% protection” value ([3]; 10 mg/kg i.p.) was 46.2%. The “% protection” value ([3]; 10 mg/kg per os) was 40.6%, the “% protection” value ([3]; 20 mg/kg i.p.) was 69.1% and the “% protection” value ([3]; 20 mg/kg per os) was 62.0%. The “% inhibition, amplitude of coughs” value ([4]; 50 mg/kg i.p.) was 0%, the “% inhibition, frequency of coughs” value ([4]; 50 mg/kg i.p.) was 0% and the “% inhibition, amplitude of coughs” value ([4]; 50 mg/kg per os) was 0%. The “% inhibition, frequency of coughs” value ([4]; 50 mg/kg per os) was 0%, the “% inhibition, amplitude of coughs” value ([4]; 75 mg/kg i.p.) was 0% and the “% inhibition, frequency of coughs” value ([4]; 75 mg/kg i.p.) was 10%. For the same compound, the “% inhibition, amplitude of coughs” value ([4]; 75 mg/kg per os) was 7%, the “% inhibition, frequency of coughs” value ([4]; 75 mg/kg per os) was 0% and the “% inhibition, amplitude of coughs” value ([4]; 100 mg/kg i.p.) was 7%. For the same compound, the “% inhibition, frequency of coughs” value ([4]; 100 mg/kg i.p.) was 10%, the “% inhibition, amplitude of coughs” value ([4]; 100 mg/kg per os) was 5% and the “% inhibition, frequency of coughs” value ([4]; 100 mg/kg per os) was 5%. For the same compound, the mean severity ([5]; 50 mg/kg orally, four days) was 2, the “mean No. of lesions” value ([5]; 100 mg/kg orally, four days) was 2.5 and the mean severity ([5]; 100 mg/kg orally, four days) was 3.5. For the same compound, the “mean No. of lesions” value ([5]; 200 mg/kg orally, four days) was 3, the mean severity ([5]; 200 mg/kg orally, four days) was 4 and the “mean No. of lesions” value ([5]; rat, in vivo) was 2.

With `O[C@H](CS)[C@H](O)CS` (racemic) [Dithiothreitol] the “% decrease of expectoration consistency” value ([2]; 0.1 M (1.5%)) was 90%.
